Measured values from patent publication US9828592B2, “Chemically modified sophorolipids and uses thereof” (Sophoro Biotechnologies, LLC, priority 2011, dated 2017).

Legend:
[1] = test system: Trichoderma reesei (Rut-C30); experiment: Cellulase induction studies in Trichoderma reesei culture, CMC endo-glucanase activity assay; format: cell-based; conditions: for CMC (U/mL) at day 5: Example 4, inducer at 2% as carbon source, no glucose
Method: Trichoderma reesei (Rut-C30) was selected as the host for cellulase expression in this Example. To prepare for the cellulase induction studies, a citrate minimal media was first prepared. The media composition described by England et al. in U.S. 2010/0009408 was modified to include 14.4 g/L citric acid, 4 g/L KH2PO4, 6.35 g/L (NH4)2SO4, 2 g/L MgSO4-7H2O, 0.53 g/L CaCl2-2H2O, and trace metal elements at 1 mL/L, which included 5 g/L FeSO4-7H2O, 1.6 g/L MnSO4—H2O, and 1.4 g/L ZnSO4-7H2O. The final pH was adjusted to 5.50 using NaOH.
The Trichoderma reesei (ATCC56765) was used in this Example. This fungal strain was developed as a catabolic de-repressed strain from classic mutagenesis of parent strain NG14 and the wild type QM6A. See Seidl et al., BMC Genomics, 9:327 (2008). To propagate Trichoderma, the freeze-dried stock from ATCC was first dissolved in sterile deionized water, and then transferred onto a potato dextrose agar (PDA) plate (Teknova P0047) using a sterile loop. The PDA plate was maintained at room temperature under white fluorescent light. After approximately seven days, green Trichoderma spores were observed. In addition, 60% (w/v) glucose, 15% (w/v) lactose, and 15% (w/v) cellobiose stocks were prepared and used both as controls and as the carbon source for Trichoderma growth.
To initiate cellulase induction studies for each of the sophorolipid mixtures prepared in Examples 1-3 above, 0.5 mL of glucose stock was first placed into 14 mL of citrate minimal media inside a 125 mL baffled flask. […]
To commence the fermentation, an approximately 1 cm×1 cm square agar plug was removed from the Trichoderma spore-containing PDA agar plate using a sterile loop and placed into the cellulase induction culture media. […] At five days of fermentation, the samples were collected and analyzed for carboxymethylcellulose (CMC) endo-glucanase activity. […] It should be understood that one CMC unit denotes the activity that liberates 1 μmol of reducing sugars (expressed as glucose equivalents) in one minute under the specified conditions of 50° C. and pH 4.8.

[2] = test system: Trichoderma reesei (Rut-C30); experiment: as above; format: cell-based; conditions: for Cellulase activity U/mL at day 3 / Cellulase activity U/mg at day 3: 2% glucose
Trichoderma viride = conditions: Mandels et al. 1962; cited from earlier work
[3] = Example 8, 1.0 g/L (15 mg/15 mL, 2.92 mM)
[4] = Example 9, 1.0 g/L (15 mg/15 mL, 2.92 mM)
[5] = Example 8, 0.13 g/L (2.0 mg/15 mL, 0.38 mM)
[6] = Example 8, 1.3 g/L (20 mg/15 mL, 3.90 mM)
[7] = Example 9, 0.13 g/L (2.0 mg/15 mL, 0.38 mM)
[8] = Example 9, 1.3 g/L (20 mg/15 mL, 3.90 mM)

Q: Which results are given for `O=C[C@H](O)[C@@H](O)[C@H](O[C@@H]1O[C@H](CO)[C@@H](O)[C@H](O)[C@H]1O)[C@H](O)CO` [cellobiose]?
A: cellulase activity compared to the glucose control ([1]; Example 4, day 5, in words): marginal cellulase activity; CMC (U/mL) at day 5 [1]: 2.05 U/mL; Cellulase activity U/mL at day 3 [2, 3]: 0.34 U/mL; Cellulase activity U/mg at day 3 [2, 3]: 0.34 U/mg; Cellulase activity U/mL at day 3 [2, 4]: 0.34 U/mL; Cellulase activity U/mg at day 3 [2, 4]: 0.34 U/mg

Q: Which “Cellulase activity U/mL at day 3” value [2, 5] does the source give for `OC[C@H]1O[C@@H](O[C@@H]2[C@@H](O)[C@H](O)[C@@H](CO)O[C@@H]2O)[C@H](O)[C@@H](O)[C@@H]1O` [sophorose, 2-O-beta-D-glucopyranosyl-alpha-D-glucose] here?
A: The value was 3.58 U/mL.

Q: What about the “Cellulase activity U/mg at day 3” value [2, 5] of the same compound?
A: The value was 26.9 U/mg.

Q: What about the “Cellulase activity U/mL at day 3” value [2, 6] of the same compound?
A: Its value is 15.0 U/mL.

Q: What about the “Cellulase activity U/mg at day 3” value [2, 6] of the same compound?
A: Its value is 11.2 U/mg.

Q: What about the “Cellulase activity U/mL at day 3” value [2, 7] of the same compound?
A: The value was 3.58 U/mL.

Q: What about the “Cellulase activity U/mg at day 3” value [2, 7] of the same compound?
A: The value was 26.9 U/mg.

Q: And the “Cellulase activity U/mL at day 3” value [2, 8]?
A: The value was 15.0 U/mL.

Q: And the “Cellulase activity U/mg at day 3” value [2, 8]?
A: Its value is 11.2 U/mg.

Q: And the “increase in cellulase production compared to cellobiose” value (Trichoderma viride)?
A: The value was “about 2500 times”.

Q: What does the source list for `OC[C@H]1O[C@@H](O[C@H]2[C@H](O)[C@@H](O)C(O)O[C@@H]2CO)[C@H](O)[C@@H](O)[C@H]1O` (stereo partly drawn) [lactose]?
A: CMC (U/mL) at day 5 [1]: 10.1 U/mL; CMC (U/mL) at day 5 ([2]; Example 5, inducer at 2%, no glucose): 8.29 U/mL; Cellulase activity U/mL at day 3 [2, 3]: 0.64 U/mL; Cellulase activity U/mg at day 3 [2, 3]: 0.64 U/mg; Cellulase activity U/mL at day 3 [2, 4]: 0.64 U/mL; Cellulase activity U/mg at day 3 [2, 4]: 0.64 U/mg
